Biological target: T1, biotinylated human IL-17 (binding to IL17R/Fc) (Homo sapiens, UniProt Q16552)
T1 construct: purchased R&D Systems 317-ILB (IL-17, biotinylated); 177-IR (IL17R/Fc)
T1 sequence (Q16552 20-155 limits assumed): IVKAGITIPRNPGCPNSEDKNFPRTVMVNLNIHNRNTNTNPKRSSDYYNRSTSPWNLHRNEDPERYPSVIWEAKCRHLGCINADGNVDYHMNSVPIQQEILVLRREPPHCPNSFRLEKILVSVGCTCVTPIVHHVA
Assay: IL-17 competition ELISA II (captured IL17R/Fc, biotinylated IL-17)
Method: In this version, a high binding 96-well plate (Costar #9018) was coated with 20 nM of goat anti-human IgG (KPL 01-10-02) in PBS, 100 μL/well, for 30 min at 37° C. followed by 5 min at 4° C. The plate was then washed in PBST (PBS/0.05% Tween-20) on a plate washer, (BioTek ELx450) then blocked with protein-free blocking buffer (Thermo Scientific #37573) in 250 μL/well for 30 min on a shaker at room temperature, and then washed again. IL17R/Fc (R&D Systems #177-IR; 10 nM in PBST, 100 μL/well) was then added to all wells. The plate was then incubated for 30 minutes at room temperature on the shaker.
While the receptor capture step was underway, compound dilutions were prepared in PBST to a concentration of 1 μM in 1.5 mL tubes. After the receptor capture step, the plate was washed and 50 μL PBST was added to the wells in row B down to row H. Then, 62.5 μL of the 1 μM compound dilutions were added to the wells of row A. From row A, 12.5 μL of the compound solution was removed and added to row B with mixing and this process of 5-fold dilutions was continued, by row, to row G. One of the wells in row A received only PBST (62.5 μL) and this dilution series served as the no competitor control. Then, going up from row G to row A, 50 μL of b-IL-17 (biotinylated human IL-17, R&D Systems #317-ILB; 20 nM) was added to all wells. Row H received 50 μL of PBST and served as the blank row, i.e., no compound and no b-IL-17. The plate was then incubated for 30 minutes at room temperature on the shaker.
After the wash, 100 μL Streptavidin-Horseradish Peroxidase (SA-HRP) (KPL #14-30-00) at 25 ng/mL in PBST was added to each well in the plate and the plate incubated for 30 minutes at room temperature followed by wash and 100 μL SureBlue™ TMB (KPL #52-00-03). After sufficient color development (approx 3-6 minutes), the reaction was fixed by the addition of 100 μL/well 0.5 N HCl and absorbance was measured at 450 nm on a BioTek Synergy 2 plate reader. The absorbances of ‘no competitor’ control and blank control should not exceed 1.5 A.U. and 0.06 A.U., respectively.
Data was processed using BioAssay Enterprise v10.1.4 (CambridgeSoft) software. Linear OD λ450 were plotted against log concentration (x) and fitted to a 4-parameter logistic equation. IC50 was calculated using positive ‘no competitor’ control data as an upper limit and blank control as a lower limit in each assay.

Row | IC50 | SMILES
1 | < 100 nM | CN1CCOCCN(C)C(=O)[C@@H](Cc2ccccn2)NC(=O)[C@@H](Cc2ccc(NC(=O)[C@H](Cc3ccccc3Cl)NC(=O)C(F)(F)c3ccccc3)cc2)NC(=O)CC2(CCCC2)CC1=O [Compound 637]
2 | < 100 nM | CN1CCOCCOCCNC(=O)[C@@H](Cc2ccc(NC(=O)[C@H](Cc3ccccc3Cl)NC(=O)C(=O)c3ccccc3)cc2)NC(=O)CC2(CCCC2)CC1=O [Compound 585]
3 | 1000 to 10000 nM | CN1C(=O)CC2(CCCC2)CC(=O)NCCCCC#CCNC(=O)[C@H]1Cc1ccc(NC(=O)[C@H](Cc2ccccc2Cl)NC(=O)C2(c3ccc(F)cc3)CC2)cc1 [Compound 498]
4 | < 100 nM | COC(=O)N[C@@H](Cc1ccccc1Cl)C(=O)Nc1ccc(C[C@H]2NC(=O)CC3(CCCC3)CC(=O)N(C)CCOCCN(C)C(=O)[C@@H](C)NC2=O)cc1 [Compound 569]
5 | < 100 nM | C[C@H]1NC(=O)[C@@H](Cc2ccc(NC(=O)[C@H](Cc3ccccc3Cl)NC(=O)C(F)(F)c3ccccc3)cc2)NC(=O)C[C@H](Cc2ccccc2)NC(=O)CCNC(=O)CCNC1=O [Compound 633]
6 | < 100 nM | C[C@H]1NC(=O)[C@@H](Cc2ccc(NC(=O)[C@H](Cc3ccccc3Cl)NC(=O)Cc3ccc(F)cc3)cc2)NC(=O)CC(C)(C)NC(=O)CCCCCCNC1=O [Compound 620]
7 | < 100 nM | O=C(Cc1ccc(F)cc1)N[C@@H](Cc1ccccc1Cl)C(=O)Nc1ccc(C[C@H]2NC(=O)CC3(CCCC3)CC(=O)OCCCC/C=C/CNC2=O)cc1 [Compound 500]
8 | < 100 nM | CN1CCNCCNC(=O)CC2(CCCC2)CC(=O)N[C@H](Cc2ccc(NC(=O)[C@H](Cc3ccccc3Cl)NC(=O)Cc3ccccc3)cc2)C(=O)N[C@H](Cc2ccccc2)C1=O [Compound 433]
9 | > 10000 nM | C[C@H]1NC(=O)[C@@H](CCNC(=O)[C@H](Cc2ccccc2Cl)NC(=O)C(F)(F)c2ccccc2)NC(=O)CC2(CCCC2)CC(=O)NCCCCCNC1=O [Compound 610]
10 | < 100 nM | CN1C(=O)CC2(CCCC2)CC(=O)NCCOCCOCCNC(=O)[C@H]1Cc1ccc(NC(=O)[C@H](Cc2ccccc2Cl)NC(=O)Cc2ccc(F)cc2)cc1 [Compound 477]
11 | > 10000 nM | C[C@H]1NC(=O)[C@@H](CCCNC(=O)[C@H](Cc2ccccc2Cl)NC(=O)C(F)(F)c2ccccc2)NC(=O)CC2(CCCC2)CC(=O)NCCCCCNC1=O [Compound 608]
12 | < 100 nM | C[C@H]1NC(=O)[C@@H](Cc2ccc(NC(=O)[C@@H](NC(=O)Cc3ccc(N(C)C)cc3)C3CCCCC3)cc2)NC(=O)CC2(CCCC2)CC(=O)N(C)CCN(C)CCN(C)C1=O [Compound 605]
13 | < 100 nM | O=C1CC2(CCCC2)CC(=O)N[C@H](Cc2ccc(NC(=O)[C@@H](NC(=O)Cc3cccc(O)c3)C3CCCCC3)cc2)C(=O)NCCOCCOCCN1 [Compound 647]
14 | < 100 nM | O=C1CC2(CCCC2)CC(=O)N[C@H](Cc2ccc(NC(=O)[C@H](Cc3ccccc3Cl)NC(=O)Cc3ccccc3)cc2)C(=O)NCCCCN1 [Compound 391]
15 | < 100 nM | Cc1cccc(CC(=O)N[C@@H](Cc2ccccc2Cl)C(=O)Nc2ccc(C[C@H]3NC(=O)CC4(CCCC4)CC(=O)NCCOCCOCCNC3=O)cc2)c1 [Compound 496]
16 | < 100 nM | O=C1CC2(CCCC2)CC(=O)N[C@H](Cc2ccc(NC(=O)[C@H](Cc3ccc(F)cc3Cl)NC(=O)C(F)(F)c3ccccc3)cc2)C(=O)NCCOCCOCCN1 [Compound 530]
17 | < 100 nM | C[C@H]1NC(=O)[C@@H](Cc2ccc(NC(=O)[C@H](Cc3ccccc3Cl)Nc3nc4ccccc4o3)cc2)NC(=O)CC2(CCCC2)CC(=O)N(C)CCOCCN(C)C1=O [Compound 654]
18 | < 100 nM | O=C1CC2(CCCC2)CC(=O)N[C@H](Cc2ccc(NC(=O)[C@H](Cc3ccccc3Cl)NC(=O)Cc3ccccc3)cc2)C(=O)NCCNCCN1 [Compound 411]
19 | 100 to 1000 nM | O=C1CC2(CCCC2)CC(=O)N[C@H](Cc2ccc(NC(=O)[C@H](Cc3ccccc3Cl)NC(=O)[C@@H](O)c3ccccc3)cc2)C(=O)NCCCCCN1 [Compound 546]
20 | 100 to 1000 nM | O=C1CC2(CCCC2)CC(=O)N[C@H](Cc2ccc(NC(=O)[C@@H](NC(=O)c3cccnc3)C3CCCCC3)cc2)C(=O)NCCOCCOCCN1 [Compound 417]

Row | IC50 | SMILES
21 | < 100 nM | CN1CCNC(=O)CC2(CCCC2)CC(=O)N[C@H](Cc2ccc(NC(=O)[C@H](Cc3ccccc3Cl)NC(=O)NCc3ccccc3)cc2)C(=O)NCC1 [Compound 485]
22 | 100 to 1000 nM | C[C@H]1NC(=O)[C@@H](Cc2ccc(NC(=O)[C@H](Cc3ccccc3Cl)NC(=O)Cc3ccc(F)cc3)cc2)NC(=O)[C@H]2CC[C@H](CC2)C(=O)NCCCCCNC1=O [Compound 592]
23 | < 100 nM | CN1CCOCCOCCNC(=O)[C@@H](Cc2ccc(NC(=O)[C@H](CC3CCCCC3)NC(=O)C(F)(F)c3ccccc3)cc2)NC(=O)CC2(CCCC2)CC1=O [Compound 613]
24 | < 100 nM | O=C(Cc1ccccc1)N[C@@H](Cc1ccccc1Cl)C(=O)Nc1ccc(C[C@H]2NC(=O)CC3(CCCC3)CC(=O)OCCNCCNC(=O)[C@@H](Cc3ccccc3)NC2=O)cc1 [Compound 444]
25 | < 100 nM | CC(O)[C@H]1NC(=O)[C@@H](Cc2ccc(NC(=O)[C@@H](NC(=O)C(F)(F)c3ccccc3)C3CCCCC3)cc2)NC(=O)CC2(CCCC2)CC(=O)N(C)CCOCCN(C)C1=O (stereo partly shown) [Compound 655]
26 | 100 to 1000 nM | CN1CCCCCNC(=O)CC2(CCCC2)CC(=O)N(C)[C@H](Cc2ccc(N(C)C(=O)[C@H](Cc3ccccc3Cl)N(C)C(=O)Cc3ccccc3)cc2)C(=O)N(C)CC1=O [Compound 363]
27 | < 100 nM | CN1CCOCCOCCNC(=O)[C@@H](Cc2ccc(NC(=O)[C@H](CC3CCCCC3)NC(=O)Cc3ccc(N(C)C)cc3)cc2)NC(=O)CC2(CCCC2)CC1=O [Compound 614]
28 | < 100 nM | C[C@H]1NC(=O)[C@@H](Cc2ccc(NC(=O)[C@H](Cc3cccs3)NC(=O)C(F)(F)c3ccccc3)cc2)NC(=O)CC2(CCCC2)CC(=O)N(C)CCCCCN(C)C1=O [Compound 630]
29 | < 100 nM | CN(C)c1ccc(CC(=O)N[C@H](C(=O)Nc2ccc(C[C@H]3NC(=O)CC4(CCCC4)CC(=O)NCCOCCOCCNC3=O)cc2)C2CCCCC2)cc1 [Compound 596]
30 | 100 to 1000 nM | CCC(F)(F)C(=O)N[C@H](C(=O)Nc1ccc(C[C@H]2NC(=O)CC3(CCCC3)CC(=O)OCCCCCNC(=O)CNC2=O)cc1)C1CCCCC1 [Compound 677]
31 | < 100 nM | O=C1CC2(CCCC2)CC(=O)N[C@H](Cc2ccc(NC(=O)[C@H](Cc3ccccc3Cl)NC(=O)C(F)(F)c3ccccc3)cc2)C(=O)NCCCCCCCCN1 [Compound 597]
32 | < 100 nM | C[C@H]1NC(=O)[C@@H](Cc2ccc(NC(=O)[C@H](Cc3ccccc3Cl)NC(=O)C(F)(F)c3ccccc3)cc2)NC(=O)CC2(CCCC2)NC(=O)CCNC(=O)CCNC1=O [Compound 635]
33 | 100 to 1000 nM | O=C1CC2(CCCC2)CC(=O)N[C@H](Cc2ccc(NC(=O)[C@@H](NC(=O)Cc3ccccc3)C3CCCCC3)cc2)C(=O)NCCCCCCCCCN1 [Compound 350]
34 | 1000 to 10000 nM | CN1C(=O)CC2(CCCC2)CC(=O)NCCCCCCCCNC(=O)[C@H]1Cc1ccc(NC(=O)[C@H](Cc2ccccc2Cl)NC(=O)C2(c3ccc(F)cc3)CC2)cc1 [Compound 505]
35 | 1000 to 10000 nM | O=C1CNC(=O)[C@H](Cc2ccc(NC(=O)[C@@H](Cc3ccccc3Cl)NC(=O)Cc3ccccc3)cc2)NC(=O)CC2(CCCC2)CC(=O)N[C@@H](C(=O)O)CCCCN1 [Compound 454]
36 | < 100 nM | O=C1CC2(CCCC2)CC(=O)N[C@H](Cc2ccc(NC(=O)[C@H](Cc3ccccc3Cl)NC(=O)Cc3ccccc3)cc2)C(=O)NCCCN1 [Compound 398]
37 | < 100 nM | CN1CCCCCN(C)C(=O)[C@@H](Cc2ccccn2)NC(=O)[C@@H](Cc2ccc(NC(=O)[C@H](Cc3ccccc3Cl)NC(=O)Cc3ccc(F)cc3)cc2)NC(=O)CC2(CCCC2)CC1=O [Compound 524]
38 | < 100 nM | C[C@H]1NC(=O)[C@@H](Cc2ccc(NC(=O)[C@H](Cc3ccccc3Cl)NC(=O)OCc3ccccc3)cc2)NC(=O)CC2(CCCC2)CC(=O)N(C)CCN(C)CCN(C)C1=O [Compound 587]
39 | < 100 nM | C[C@H]1NC(=O)[C@@H](Cc2ccc(NC(=O)[C@@H](Nc3nc4ccccc4o3)C3CCCCC3)cc2)NC(=O)CC2(CCCC2)CC(=O)NCCCCCNC1=O [Compound 664]
40 | < 100 nM | O=C1CNC(=O)[C@H](Cc2ccc(NC(=O)[C@H](Cc3ccccc3Cl)NC(=O)Cc3ccccc3)cc2)NC(=O)CC2(CCCC2)CC(=O)NCCCCCN1 [Compound 519]

Reference: patent publication US9284283B2, “Macrocyclic compounds for modulating IL-17” (ENSEMBLE THERAPEUTICS CORPORATION, priority 2012, dated 2016)
